This is an account of results in patent US20250326753A1, “DUAL CXCR4-BTK INHIBITORS” (X4 Pharmaceuticals, Inc., priority 2022, published 2025).

One assay addresses T1, TIE2 (Homo sapiens, UniProt Q02763).
T1 construct: purchased Reaction Biology Europe GmbH
As to the kind of experiment: PanQinase kinase panel: TIE2. It is filed as biochemical. The settings on record: read-out: INHIBITORY EFFECT @ 1 uM: TIE2. As to the method:
(§1) Screening procedures were performed in accordance with the company's on-line protocol [accessed on-line Mar.
(§2) For each kinase, the median value of the cpm of three wells was defined as “low control” (n=3). This value reflects unspecific binding of radioactivity to the plate in the absence of a protein kinase but in the presence of the substrate. Additionally, for each kinase the median value of the cpm of three other wells was taken as the “high control,” i.e. full activity in the absence of any inhibitor (n=3). The difference between high and low control of each enzyme was taken as 100% activity.
(§3) As part of the data evaluation the low control of each kinase was subtracted from the high control value as well as from their corresponding “compound values”. The residual activity (in %) for each compound well was calculated by using the following formula: Res. Activity (%)=100×[(signal of compound−low control)/(high control−low control)].

A further assay concerns the target BTK (Homo sapiens, UniProt Q06187). Description: PanQinase kinase panel: BTK. Also noted: purchased Reaction Biology Europe GmbH. It is filed as biochemical. As to the method: as §1, §2
(§4) As part of the data evaluation the low control of each kinase was subtracted from the high control value as well as from their corresponding “compound values”.

For a further assay, the target named is T2, FES (Homo sapiens, UniProt P07332).
T2 construct: purchased Reaction Biology Europe GmbH
T2 sequence (P07332 whole entry): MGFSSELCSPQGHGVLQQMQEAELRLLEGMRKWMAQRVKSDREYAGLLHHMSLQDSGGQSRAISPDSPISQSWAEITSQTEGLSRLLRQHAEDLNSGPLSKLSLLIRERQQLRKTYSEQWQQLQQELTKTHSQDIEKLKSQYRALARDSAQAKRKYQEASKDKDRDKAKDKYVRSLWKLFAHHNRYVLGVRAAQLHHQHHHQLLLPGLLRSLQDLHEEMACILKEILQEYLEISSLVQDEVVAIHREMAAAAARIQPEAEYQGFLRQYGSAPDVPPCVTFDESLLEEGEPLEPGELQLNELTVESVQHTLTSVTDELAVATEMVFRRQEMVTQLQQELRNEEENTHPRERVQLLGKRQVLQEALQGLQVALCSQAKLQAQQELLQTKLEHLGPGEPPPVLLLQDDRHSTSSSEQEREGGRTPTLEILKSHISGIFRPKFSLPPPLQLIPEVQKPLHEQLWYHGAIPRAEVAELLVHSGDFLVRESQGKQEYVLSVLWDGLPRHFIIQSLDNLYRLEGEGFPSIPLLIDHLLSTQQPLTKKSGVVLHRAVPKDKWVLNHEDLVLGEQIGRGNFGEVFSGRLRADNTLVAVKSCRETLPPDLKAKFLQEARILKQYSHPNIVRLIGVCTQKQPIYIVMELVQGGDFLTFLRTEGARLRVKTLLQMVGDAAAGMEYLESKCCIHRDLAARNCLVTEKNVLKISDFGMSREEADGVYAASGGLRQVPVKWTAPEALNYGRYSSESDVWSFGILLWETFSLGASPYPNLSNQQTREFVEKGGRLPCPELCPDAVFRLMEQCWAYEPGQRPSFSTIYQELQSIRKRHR
Description: PanQinase kinase panel: FES. It counts as biochemical. The settings on record: read-out: INHIBITORY EFFECT @ 1 uM: FES. As to the method:
as §1, §2, §3

The target of the next assay is T3, ACK1 (Homo sapiens, UniProt Q07912).
T3 construct: purchased Reaction Biology Europe GmbH
T3 sequence (Q07912 whole entry): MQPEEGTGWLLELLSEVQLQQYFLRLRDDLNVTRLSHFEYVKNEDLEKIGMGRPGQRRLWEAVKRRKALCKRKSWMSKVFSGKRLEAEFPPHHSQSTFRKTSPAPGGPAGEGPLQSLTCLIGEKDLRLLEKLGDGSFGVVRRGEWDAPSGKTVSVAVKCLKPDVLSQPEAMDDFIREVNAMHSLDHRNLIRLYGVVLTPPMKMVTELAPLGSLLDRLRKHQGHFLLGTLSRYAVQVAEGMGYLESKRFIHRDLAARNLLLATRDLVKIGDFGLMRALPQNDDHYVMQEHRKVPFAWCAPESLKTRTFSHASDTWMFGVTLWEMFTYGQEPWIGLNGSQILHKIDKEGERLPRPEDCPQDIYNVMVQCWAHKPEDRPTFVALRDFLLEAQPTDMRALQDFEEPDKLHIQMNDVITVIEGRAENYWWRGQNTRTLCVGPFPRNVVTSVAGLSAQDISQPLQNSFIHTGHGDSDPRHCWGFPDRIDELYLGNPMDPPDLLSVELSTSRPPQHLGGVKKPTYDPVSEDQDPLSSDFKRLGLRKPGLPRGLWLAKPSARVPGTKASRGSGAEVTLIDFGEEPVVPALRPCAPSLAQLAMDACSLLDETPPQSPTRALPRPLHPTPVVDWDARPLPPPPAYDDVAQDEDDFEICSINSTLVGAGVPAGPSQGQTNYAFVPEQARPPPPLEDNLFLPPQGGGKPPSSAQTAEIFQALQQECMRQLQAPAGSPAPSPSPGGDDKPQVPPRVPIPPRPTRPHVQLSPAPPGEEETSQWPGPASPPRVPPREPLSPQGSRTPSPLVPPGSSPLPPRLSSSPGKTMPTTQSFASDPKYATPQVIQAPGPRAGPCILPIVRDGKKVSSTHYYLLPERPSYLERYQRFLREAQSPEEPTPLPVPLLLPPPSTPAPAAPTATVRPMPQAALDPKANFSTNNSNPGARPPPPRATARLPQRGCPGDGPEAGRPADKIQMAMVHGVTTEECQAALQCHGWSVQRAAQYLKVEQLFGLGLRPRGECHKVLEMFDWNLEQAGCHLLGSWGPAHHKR
As to the kind of experiment: PanQinase kinase panel: ACK1. It is filed as biochemical. As to the method:
as §1, §2, §3

A further assay addresses T4, PAK2 (Homo sapiens, UniProt Q13177).
T4 construct: purchased Reaction Biology Europe GmbH
Description: PanQinase kinase panel: PAK2. The settings on record: read-out: INHIBITORY EFFECT @ 1 uM: PAK2. It is filed as biochemical. As to the method: as §1, §2, §3

Another assay addresses CXCR4 (Homo sapiens, UniProt P61073). Description: Chemokine (CXCL12-AF647) binding inhibition assay, Jurkat cells expressing CXCR4. The settings on record: CXCL12-AF647 25 ng/ml, read-out: IC50 CXCL-12 binding Jurkat. In outline: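 Jurkat cells preincubated 15 min at RT with compounds in HBSS/20 mM HEPES/0.2% BSA, pH 7.4, then exposed to CXCL12-AF647 (25 ng/ml) for 30 min at RT; washed, fixed and read by flow cytometry (FL4). Inhibition calculated from MFI normalised to unlabeled and ligand-only controls.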

The next assay has as its target T5, SIK2 (Homo sapiens, UniProt Q9H0K1).
T5 construct: purchased Reaction Biology Europe GmbH
Description: PanQinase kinase panel: SIK2. It counts as biochemical. The protocol: as §1, §2, §3

Assay [1] concerns the target T6, BTK (Bruton tyrosine kinase) (Homo sapiens, UniProt Q06187).
T6 construct: GST or His (the text leaves open which); purchased Reaction Biology Europe GmbH Lot 012,11; host or cells: Sf9 insect cells or E. coli (not resolved)
As to the kind of experiment: BTK screening assay (33PanQinase Activity Assay, radiometric). It is filed as biochemical. The settings on record: Inhibition of BTK, radiometric 33PanQinase Activity Assay, 3 μM ATP, 10 concentrations in singlicate, top 10 μM; read-out: 33PanQinase ® Radiometric IC50.

Another assay concerns the target T7, MAP3K11 (Homo sapiens, UniProt Q16584).
T7 construct: purchased Reaction Biology Europe GmbH
As to the kind of experiment: PanQinase kinase panel: MAP3K11. It is filed as biochemical. As to the method: as §1, §2, §4

The target of the next assay is T8, CLK2 (Homo sapiens, UniProt P49760).
T8 construct: purchased Reaction Biology Europe GmbH
T8 sequence (P49760 whole entry): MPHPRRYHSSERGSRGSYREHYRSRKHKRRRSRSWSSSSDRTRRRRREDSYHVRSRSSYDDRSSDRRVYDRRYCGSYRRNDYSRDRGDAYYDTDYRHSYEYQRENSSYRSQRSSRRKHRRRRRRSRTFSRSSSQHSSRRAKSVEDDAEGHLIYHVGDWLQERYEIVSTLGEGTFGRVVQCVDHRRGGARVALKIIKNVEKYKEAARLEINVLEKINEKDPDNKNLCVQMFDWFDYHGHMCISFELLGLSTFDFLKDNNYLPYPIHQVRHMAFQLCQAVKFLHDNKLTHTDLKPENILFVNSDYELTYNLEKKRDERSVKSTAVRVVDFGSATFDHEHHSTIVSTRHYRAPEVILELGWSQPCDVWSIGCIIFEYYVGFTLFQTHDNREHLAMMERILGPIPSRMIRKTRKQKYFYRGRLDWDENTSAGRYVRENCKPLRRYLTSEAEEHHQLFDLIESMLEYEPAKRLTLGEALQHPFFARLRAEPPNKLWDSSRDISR
Description: PanQinase kinase panel: CLK2. It counts as biochemical. As to the method:
as §1, §2, §3

The mark [2] stands for this setting: read-out: INHIBITORY EFFECT @ 1 uM: BTK.
Setting [3] is: read-out: INHIBITORY EFFECT @ 1 uM: ACK1.
The mark [4] stands for this setting: read-out: INHIBITORY EFFECT @ 1 uM: SIK2.
[5] abbreviates: read-out: INHIBITORY EFFECT @ 1 uM: MAP3K11.
[6] abbreviates: read-out: INHIBITORY EFFECT @ 1 uM: CLK2.

Structures are written as SMILES. Like-named read-outs stand apart in the source and are kept apart here.

T4 sequence (Q13177 whole entry): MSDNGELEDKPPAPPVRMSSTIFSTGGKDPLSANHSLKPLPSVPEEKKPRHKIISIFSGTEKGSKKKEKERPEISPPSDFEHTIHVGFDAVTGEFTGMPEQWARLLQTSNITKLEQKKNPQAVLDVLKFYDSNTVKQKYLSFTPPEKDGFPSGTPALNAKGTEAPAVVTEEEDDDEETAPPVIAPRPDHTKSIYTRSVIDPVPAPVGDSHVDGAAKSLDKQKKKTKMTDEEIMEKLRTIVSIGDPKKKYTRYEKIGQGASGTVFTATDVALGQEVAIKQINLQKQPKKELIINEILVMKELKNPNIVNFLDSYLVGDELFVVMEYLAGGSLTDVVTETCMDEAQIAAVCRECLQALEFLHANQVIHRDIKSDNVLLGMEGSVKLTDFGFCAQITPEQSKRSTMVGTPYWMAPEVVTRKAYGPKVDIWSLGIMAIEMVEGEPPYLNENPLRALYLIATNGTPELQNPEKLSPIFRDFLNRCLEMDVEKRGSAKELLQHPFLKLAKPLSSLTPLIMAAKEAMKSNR
BTK, sequence (Q06187 whole entry): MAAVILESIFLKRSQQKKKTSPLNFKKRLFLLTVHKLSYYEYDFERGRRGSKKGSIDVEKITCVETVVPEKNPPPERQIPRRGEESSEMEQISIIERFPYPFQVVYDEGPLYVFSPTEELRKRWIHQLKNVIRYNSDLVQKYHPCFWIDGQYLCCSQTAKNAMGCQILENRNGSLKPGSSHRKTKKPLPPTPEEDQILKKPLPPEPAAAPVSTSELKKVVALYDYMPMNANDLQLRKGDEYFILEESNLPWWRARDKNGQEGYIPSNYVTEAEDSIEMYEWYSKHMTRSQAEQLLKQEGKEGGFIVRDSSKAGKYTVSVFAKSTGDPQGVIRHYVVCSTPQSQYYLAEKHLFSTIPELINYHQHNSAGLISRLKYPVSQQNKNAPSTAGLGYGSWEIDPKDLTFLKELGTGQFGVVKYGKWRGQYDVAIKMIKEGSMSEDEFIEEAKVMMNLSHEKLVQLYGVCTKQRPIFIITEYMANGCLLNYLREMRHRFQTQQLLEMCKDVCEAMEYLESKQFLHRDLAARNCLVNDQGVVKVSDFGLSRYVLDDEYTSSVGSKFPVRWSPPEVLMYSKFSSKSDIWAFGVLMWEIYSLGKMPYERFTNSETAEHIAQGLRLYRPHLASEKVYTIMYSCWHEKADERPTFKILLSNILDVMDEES
T6 sequence (Q06187 whole entry): as above
T7 sequence (Q16584 whole entry): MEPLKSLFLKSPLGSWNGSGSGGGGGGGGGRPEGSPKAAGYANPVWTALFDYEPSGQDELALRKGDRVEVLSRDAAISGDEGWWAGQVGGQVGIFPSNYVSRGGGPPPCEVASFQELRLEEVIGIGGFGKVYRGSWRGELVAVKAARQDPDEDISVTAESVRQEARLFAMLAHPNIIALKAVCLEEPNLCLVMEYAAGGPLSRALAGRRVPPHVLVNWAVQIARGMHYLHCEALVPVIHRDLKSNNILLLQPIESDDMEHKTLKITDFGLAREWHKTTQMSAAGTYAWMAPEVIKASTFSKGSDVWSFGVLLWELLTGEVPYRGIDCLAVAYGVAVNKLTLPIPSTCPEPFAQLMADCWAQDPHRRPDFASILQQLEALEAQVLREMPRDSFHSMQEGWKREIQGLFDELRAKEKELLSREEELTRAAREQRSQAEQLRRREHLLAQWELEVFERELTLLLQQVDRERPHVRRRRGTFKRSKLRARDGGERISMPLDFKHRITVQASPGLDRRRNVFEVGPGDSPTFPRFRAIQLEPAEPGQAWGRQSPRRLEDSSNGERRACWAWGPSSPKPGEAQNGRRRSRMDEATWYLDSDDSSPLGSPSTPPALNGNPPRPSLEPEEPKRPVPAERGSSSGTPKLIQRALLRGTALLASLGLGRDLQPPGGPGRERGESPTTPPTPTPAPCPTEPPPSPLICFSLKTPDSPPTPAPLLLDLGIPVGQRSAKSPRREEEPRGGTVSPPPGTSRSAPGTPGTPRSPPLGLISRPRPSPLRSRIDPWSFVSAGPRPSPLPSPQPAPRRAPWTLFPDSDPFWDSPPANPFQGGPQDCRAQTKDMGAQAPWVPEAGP
CXCR4, sequence (P61073 whole entry): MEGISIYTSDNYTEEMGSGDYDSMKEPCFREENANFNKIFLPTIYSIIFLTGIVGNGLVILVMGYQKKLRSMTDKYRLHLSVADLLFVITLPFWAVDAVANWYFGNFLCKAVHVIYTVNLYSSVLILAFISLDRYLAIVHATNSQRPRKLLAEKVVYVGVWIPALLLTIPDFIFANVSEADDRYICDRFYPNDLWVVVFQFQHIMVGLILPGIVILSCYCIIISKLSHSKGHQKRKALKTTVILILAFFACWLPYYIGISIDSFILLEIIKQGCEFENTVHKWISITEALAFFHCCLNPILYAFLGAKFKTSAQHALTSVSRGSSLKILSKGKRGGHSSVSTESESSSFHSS

`O=C(c1ccc(Oc2ccccc2)cc1Cl)c1c[nH]c2ncnc(N[C@@H]3CC[C@@H](CO)OC3)c12` [ARQ-531, (2-chloro-4-phenoxyphenyl) (4-(((3R,6S)-6-(hydroxymethyl)tetrahydro-2H-pyran-3-yl)amino)-7H-pyrrolo[2,3-d]pyrimidin-5-yl) methanone]: the inhibition at 1 µM at TIE2 was under 50%; on BTK (setting [2]) it was 90 to 100%; on FES, 50 to 69%; at ACK1 (setting [3]), 90 to 100%; on PAK2 it was 70 to 89%.
Turning to `Cc1cccnc1[C@H]1CCC[C@@H](c2ncccc2C)N1CCN1CCN(C(=O)c2ccc(-c3cc4c(-c5cccc(NC(=O)c6ccccc6)c5C)ncnc4[nH]3)cc2)CC1` [Compound I-10, N-(3-(6-(4-(4-(2-((2R,6S)-2,6-bis(3-methylpyridin-2-yl)piperidin-1-yl)ethyl)piperazine-1-carbonyl)phenyl)-7H-pyrrolo[2,3-d]pyrimidin-4-yl)-2-methylphenyl)benzamide], the inhibition at 1 µM at TIE2 was under 50%; on BTK (1 μM, read-out: inhibitor effect on BTK), at least 90%; at BTK (setting [2]), 90 to 100%; at FES, under 50%; at ACK1 (1 μM, read-out: inhibitor effect on ACK1), at least 90%; on ACK1 (setting [3]) it was 90 to 100%. In addition, the inhibition at 1 µM on SIK2 (at 1 μM, read-out: inhibition of SIK2) is 50 to 89%; on SIK2 (setting [4]), 50 to 69%; on PAK2, under 50%; at MAP3K11 (at 1 μM, read-out: inhibition of MAP3K11) it was 50 to 89%; at MAP3K11 (setting [5]), 50 to 69%; on CLK2 (at 1 μM, read-out: inhibition of CLK2), 50 to 89%. Moreover, the inhibition at 1 µM on CLK2 (setting [6]) is 50 to 69%. The IC50 (on CXCR4; in assay [1]) was 1 to 100 nM throughout.
With `Cc1cc(-c2ccnc(Nc3cnn(CCN4[C@@H](c5ncccc5C)CCC[C@H]4c4ncccc4C)c3)n2)ccc1CNC(=O)N1CC(OC(C)C)C1` [Compound I-11], the IC50 (on CXCR4; in [1]) was 1 to 100 nM in each case.
As to `Cc1cccnc1[C@H]1CCC[C@@H](c2ncccc2C)N1CCCCNC(=O)[C@@H]1CC[C@@H](Nc2ncnc3[nH]cc(C(=O)c4ccc(Oc5ccccc5)cc4Cl)c23)CO1` [Compound I-16], the IC50 (on CXCR4; in [1]) was 1 to 100 nM throughout.
Consider `Cc1cccnc1[C@H]1CCC[C@@H](c2ncccc2C)N1CCCCNC(=O)OC[C@@H]1CC[C@@H](Nc2ncnc3[nH]cc(C(=O)c4ccc(Oc5ccccc5)cc4Cl)c23)CO1` [Compound I-18], for which the IC50 on CXCR4 lay within 100 to 1000 nM; in [1], 1 to 100 nM.
Consider `COc1ccc(F)cc1C(=O)NCc1ccc(-c2nn([C@@H](C)C(F)(F)F)c(N)c2C(N)=O)cc1` [LOXO-305, pirtobrutinib], for which the inhibition at 1 µM at TIE2 was under 50%; on BTK (setting [2]), 90 to 100%; at FES, under 50%; at ACK1 (setting [3]), under 50%; at SIK2 (setting [4]), under 50%; at PAK2 it was under 50%. Moreover, the inhibition at 1 µM on MAP3K11 (setting [5]) and at CLK2 (setting [6]) was under 50% in each case.
In the case of `C=CC(=O)N1CCC([C@@H]2CCNc3c(C(N)=O)c(-c4ccc(Oc5ccccc5)cc4)nn32)CC1` [Zanubrutinib, (7S)-2-(4-phenoxyphenyl)-7-(1-prop-2-enoylpiperidin-4-yl)-4,5,6,7-tetrahydropyrazolo[1,5-a]pyrimidine-3-carboxamide], the inhibition at 1 µM on TIE2, at FES, at ACK1 (setting [3]), on SIK2 (setting [4]), on PAK2 and on MAP3K11 (setting [5]) was under 50% each time. For the same compound, the inhibition at 1 µM at CLK2 (setting [6]) is under 50%.

The IC50 is the concentration at which inhibition is half-maximal.
